In data set [1] the target is human adenosine A2A receptor (A2AR) (Homo sapiens (Human), UniProt P29274). The experiment in a line: Adenosine receptor binding assay, A2A (radioligand competitive binding). As to conditions: membrane homogenates from HEK293 cells transfected with A2AR, 6 nM [3H]CGS21680. As for the experimental part: (§1) Binding affinity of test compounds to four human adenosine receptors, A1, A2A, A2B and A3 was determined in radioligand competitive binding assay (conducted by Cerep, France) using following protocols. For A1 receptor (A1R), membrane homogenates from CHO cells transfected with A1R were incubated for 60 min at 22° C. with 1 nM [3H]DPCPX in the absence or presence of the test compound in a buffer containing 50 mM Tris-HCl (pH 7.4), 5 mM MgCl2, 1 mM EDTA/Tris and 2 UI/mL ADA. For A2AR, membrane homogenates from HEK293 cells transfected with A2AR were incubated for 120 min at 22° C. with 6 nM [3H]CGS21680 in the absence or presence of the test compound in a buffer containing 50 mM Tris-HCl (pH 7.4), 10 mM MgCl2, and 2 UI/mL ADA. For A2B receptor (A2BR), membrane homogenates from HEK293 cells transfected with A2BR were incubated for 60 min at 22° C. with 5 nM [3H]CPX in the absence or presence of the test compound in a buffer containing 10 mM Hepes/Tris (pH 7), 1 mM MgCl2, and 1 mM EDTA. For A3 receptor (A3R), membrane homogenates from HEK293 cells transfected with A3R were incubated for 120 min at 22° C. with 0.15 nM [125I] AB-MECA in the absence or presence of the test compound in a buffer containing 50 mM Tris-HCl (pH 7.4), 5 mM MgCl2, 1 mM EDTA and 2 UI/mL ADA. Nonspecific binding was determined in the presence of unlabeled 1 μM DPCPX, 10 μM NECA, 100 μM NECA, and 1 μM IB-MECA in A1R, A2AR, A2BR, A3R binding assays, respectively. Following incubation, the samples are rapidly filtered and washed with ice-cold 50 mM Tris-HCl. Then filters are dried and counted for radioactivity in a scintillation counter (Topcount, Packard) using a scintillation cocktail (Microscint 0, Packard). Duplicate experiments were performed for each assay. The results are expressed as a percent inhibition of control radioligand specific binding.

Another data set in a line: Mouse BBB assay. It counts as in vivo. Conditions: oral 10 mg/kg. As for the experimental part: Mice were acclimated for 1 week prior to use at 18-30 g body weight. Fasted mice were dosed orally at 10 mg/kg dose. At 1, 2 and 4 hours postdose, plasma samples from cardiac blood collected in tubes containing K2EDTA as the anticoagulant, and excised cerebral hemispheres were immediately frozen and stored at −80° C. until bioanalysis. Total concentrations of the compound were determined by LC-MS/MS. Brain homogenate concentrations were converted to brain concentrations for the calculations of brain-to-plasma ratios.

In data set [2] the target is human A2A receptor (A2AR) (Homo sapiens (Human), UniProt P29274). Kind of data set: Luciferase reporter assay (HEK293-A2AR-luc2p/CRE/Hygro cells). The data set is classed as cell-based. Conditions: 3 nM CGS21680, 5 h incubation. In short, it runs like this:
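Antagonism was scored as inhibition of CRE-luciferase signal driven by 3 nM CGS21680 (=100%) during a 5 h treatment with compound at 0.1–10000 nM. The line was HEK293 stably carrying human A2AR and luc2P/CRE, preincubated 18 h in 1% FBS containing 1 U/mL ADA. IC50 came from the dose-response curve.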
In general terms: Reporter assays use an easily measured gene product as a stand-in for the process of interest.

Data set [3] concerns the target human adenosine A1 receptor (A1R) (Homo sapiens (Human), UniProt P30542). The experiment in a line: Adenosine receptor binding assay, A1 (radioligand competitive binding). As to conditions: membrane homogenates from CHO cells transfected with A1R, 1 nM [3H]DPCPX. As for the experimental part:
as §1

Setting [4] is: limit of quantitation plasma 1 ng/ml, read-out: Plasma.

Like-named read-outs stand apart in the source and are kept apart here.

This is an account of results in patent US11472811B2, “Pyrazolotriazolopyrimidine derivatives as A2A receptor antagonist” (BEIGENE, LTD., priority 2018, dated 2022).

human A2A receptor (A2AR), sequence (P29274 whole entry): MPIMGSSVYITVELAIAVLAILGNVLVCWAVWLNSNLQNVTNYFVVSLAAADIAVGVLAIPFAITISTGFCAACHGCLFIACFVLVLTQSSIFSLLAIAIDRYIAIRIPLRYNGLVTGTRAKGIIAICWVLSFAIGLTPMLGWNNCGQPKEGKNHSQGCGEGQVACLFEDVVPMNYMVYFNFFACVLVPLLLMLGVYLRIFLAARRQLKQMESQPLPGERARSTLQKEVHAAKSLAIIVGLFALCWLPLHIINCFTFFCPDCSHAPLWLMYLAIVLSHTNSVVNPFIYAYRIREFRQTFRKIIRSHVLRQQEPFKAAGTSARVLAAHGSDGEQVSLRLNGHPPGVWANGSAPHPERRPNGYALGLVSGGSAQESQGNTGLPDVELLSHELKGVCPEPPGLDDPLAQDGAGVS
human adenosine A1 receptor (A1R), sequence (P30542 whole entry): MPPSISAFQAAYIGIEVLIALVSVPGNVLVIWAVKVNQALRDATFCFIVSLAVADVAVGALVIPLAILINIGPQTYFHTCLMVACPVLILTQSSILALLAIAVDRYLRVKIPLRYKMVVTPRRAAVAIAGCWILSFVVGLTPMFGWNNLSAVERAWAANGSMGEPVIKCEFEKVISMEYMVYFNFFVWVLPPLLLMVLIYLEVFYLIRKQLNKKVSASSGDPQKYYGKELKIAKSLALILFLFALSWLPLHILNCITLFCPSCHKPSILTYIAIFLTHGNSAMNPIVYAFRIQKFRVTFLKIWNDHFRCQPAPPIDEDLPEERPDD
human adenosine A2A receptor (A2AR), sequence (P29274 whole entry): as the sequence (P29274 whole entry) above

For the compound `CC1(O)CCC(NC(=O)[C@@](C)(c2ccccc2)n2ncc3c2nc(N)n2nc(-c4ccco4)nc32)CC1` (stereo partly drawn) [Example 69B, (R)-2-(5-amino-2-(furan-2-yl)-7H-pyrazolo[4,3-e][1,2,4]triazolo[1,5-c]pyrimidin-7-yl)-(cis)-N-(4-hydroxy-4-methylcyclohexyl)-2-phenylpropanamide], the Ki in data set [1] stood at 1.6 nM; in data set [3] it was 540 nM. Besides, the “Brain (ng · g^−1)” value in the data set “Mouse BBB assay” (at 1 h, BLOQ: below limit of quantitation, Brain is 5 ng/g) was “BLOQ”. Moreover, in the data set “Mouse BBB assay” (setting [4]), the concentration at 1 h worked out at 29.4 ng/mL. In data set [2], this compound returned an IC50 of 3.9 nM.

`COCCOc1ccc(N2CCN(CCn3ncc4c3nc(N)n3nc(-c5ccco5)nc43)CC2)cc1` [Preladenant, reference compound]: the concentration at 1 h in “Mouse BBB assay” (BLOQ: below limit of quantitation, Brain is 5 ng/g, read-out: Brain) was found to be 258 ng/g; in “Mouse BBB assay” (setting [4]), 197 ng/mL.

Regarding `Nc1nc2c(cnn2[C@H](C(=O)NCC2(O)COC2)c2ccccc2)c2nc(-c3ccco3)nn12` [Example 82B], the inhibition constant Ki in data set [1] amounted to 1.7 nM; in data set [3] it was 7.2 nM. This compound also yielded an IC50 in data set [2] of 3.8 nM.

Compound `CC(=O)O[C@H]1CC[C@@H](NC(=O)[C@@](C)(c2ccccc2)n2ncc3c2nc(N)n2nc(-c4ccco4)nc32)CC1` [Example 151B, (cis)-4-((R)-2-(5-amino-2-(furan-2-yl)-7H-pyrazolo[4,3-e][1,2,4]triazolo[1,5-c]pyrimidin-7-yl)-2-phenylpropanamido)cyclohexyl acetate] yielded an IC50 in data set [2] of 2 nM.

For `C[C@](C(=O)N[C@H]1CC[S@@+]([O-])CC1)(c1ccccc1)n1ncc2c1nc(N)n1nc(-c3ccco3)nc21` (single isomer, unassigned) [Example 146B-1], in data set [2], the 50% inhibitory concentration (IC50) was determined as 39.3 nM.

`CC(Cc1ccccc1)(C(=O)NCC1(O)COC1)n1ncc2c1nc(N)n1nc(-c3ccco3)nc21` (stereo not shown) [Example 132, 2-(5-amino-2-(furan-2-yl)-7H-pyrazolo[4,3-e][1,2,4]triazolo[1,5-c]pyrimidin-7-yl)-N-((3-hydroxyoxetan-3-yl)methyl)-2-methyl-3-phenylpropanamide]: the IC50 in data set [2] came to 15.7 nM.

In turn, `CC(C(=O)NC[C@H]1CCCO1)(c1ccccc1)n1ncc2c1nc(N)n1nc(-c3ccco3)nc21` (stereo partly drawn) [Example 50, 2-(5-amino-2-(furan-2-yl)-7H-pyrazolo[4,3-e][1,2,4]triazolo[1,5-c]pyrimidin-7-yl)-2-phenyl-N—(((R)-tetrahydrofuran-2-yl)methyl)propanamide] showed an IC50 in data set [2] of 5.3 nM. This IC50 lies about 3-fold lower than the previous one.

On to `C[C@](C(=O)NC1CC[S+]([O-])CC1)(c1ccccc1)n1ncc2c1nc(N)n1nc(-c3ccco3)nc21` (single isomer, unassigned) [Example 146B-2], for which, in data set [2], the midpoint of inhibition, the IC50, lay at 43.9 nM.

In turn, `CC(C(=O)N[C@H]1CCCC[C@H]1O)(c1ccccc1)n1ncc2c1nc(N)n1nc(-c3ccco3)nc21` (stereo partly drawn) [Example 58A, 2-(5-amino-2-(furan-2-yl)-7H-pyrazolo[4,3-e][1,2,4]triazolo[1,5-c]pyrimidin-7-yl)-N-((1S,2R)-2-hydroxycyclohexyl)-2-phenylpropanamide] registered an IC50 in data set [2] of 14.2 nM.

In data set [2], `Nc1nc2c(cnn2C(C(=O)Nc2ccccc2)c2ccccc2)c2nc(-c3ccco3)nn12` (stereo not shown) [Example 3, 2-(5-amino-2-(furan-2-yl)-7H-pyrazolo[4,3-e][1,2,4]triazolo[1,5-c]pyrimidin-7-yl)-N,2-diphenylacetamide] came in with an IC50 of 5.2 nM.

As for `C[C@]1(O)CC[C@H](NC(=O)C(c2ccccc2)n2ncc3c2nc(N)n2nc(-c4ccco4)nc32)CC1` (stereo partly drawn) [Example 96, 2-(5-amino-2-(furan-2-yl)-7H-pyrazolo[4,3-e][1,2,4]triazolo[1,5-c]pyrimidin-7-yl)-(cis)-N-(4-hydroxy-4-methylcyclohexyl)-2-phenylacetamide], in data set [2], the IC50 was 7.5 nM.

Regarding `CC(C(=O)NCC1(O)COC1)(c1ccccc1F)n1ncc2c1nc(N)n1nc(-c3ccco3)nc21` (stereo not shown) [Example 87, 2-(5-amino-2-(furan-2-yl)-7H-pyrazolo[4,3-e][1,2,4]triazolo[1,5-c]pyrimidin-7-yl)-2-(2-fluorophenyl)-N-((3-hydroxyoxetan-3-yl)methyl)propanamide], in data set [2], the IC50 was determined as 4.9 nM. This IC50 is about 1.5-fold lower than that of the compound before.

The compound `CC(C)(C(=O)NCC1(O)COC1)n1ncc2c1nc(N)n1nc(-c3ccco3)nc21` [Example 138, 2-(5-amino-2-(furan-2-yl)-7H-pyrazolo[4,3-e][1,2,4]triazolo[1,5-c]pyrimidin-7-yl)-N-((3-hydroxyoxetan-3-yl)methyl)-2-methylpropanamide] displayed an IC50 in data set [2] of 33.2 nM. This IC50 lies about 6.8-fold higher than the previous one.

For `C[C@](C(=O)N[C@H]1COC[C@@H]1O)(c1ccccc1)n1ncc2c1nc(N)n1nc(-c3ccco3)nc21` [Example 106B, (R)-2-(5-amino-2-(furan-2-yl)-7H-pyrazolo[4,3-e][1,2,4]triazolo[1,5-c]pyrimidin-7-yl)-N-((3S,4R)-4-hydroxytetrahydrofuran-3-yl)-2-phenylpropanamide], half-maximal inhibition in data set [2] (IC50) required 41.7 nM. This IC50 and that of the compound before are within 1.5-fold of each other.

On to `CC(C(=O)N[C@H]1CCC[C@@H](O)C1)(c1ccccc1)n1ncc2c1nc(N)n1nc(-c3ccco3)nc21` (stereo partly drawn) [Example 123, 2-(5-amino-2-(furan-2-yl)-7H-pyrazolo[4,3-e][1,2,4]triazolo[1,5-c]pyrimidin-7-yl)-N-((1S,3R)-3-hydroxycyclohexyl)-2-phenylpropanamide], for which the IC50 in data set [2] came to 8.5 nM.

Turning to `COc1ccccc1C(C)(C(=O)N[C@H]1CC[C@@H](O)CC1)n1ncc2c1nc(N)n1nc(-c3ccco3)nc21` (relative stereo) [Example 139, 2-(5-amino-2-(furan-2-yl)-7H-pyrazolo[4,3-e][1,2,4]triazolo[1,5-c]pyrimidin-7-yl)-N-((cis)-4-hydroxycyclohexyl)-2-(2-methoxyphenyl)propanamide], the IC50 in data set [2] worked out at 1.9 nM.

Consider `CC(C(=O)NCCC1CCOCC1)(c1ccccc1)n1ncc2c1nc(N)n1nc(-c3ccco3)nc21` (stereo not shown) [Example 73, 2-(5-amino-2-(furan-2-yl)-7H-pyrazolo[4,3-e][1,2,4]triazolo[1,5-c]pyrimidin-7-yl)-2-phenyl-N-(2-(tetrahydro-2H-pyran-4-yl)ethyl)propanamide], for which the concentration for half-maximal inhibition (IC50) in data set [2] amounted to 9.3 nM.

As for `CC(C(=O)N[C@H]1CC[C@H](O)CC1)(c1ccccc1)n1ncc2c1nc(N)n1nc(-c3ccco3)nc21` (relative stereo) [Example 52, 2-(5-amino-2-(furan-2-yl)-7H-pyrazolo[4,3-e][1,2,4]triazolo[1,5-c]pyrimidin-7-yl)-(trans)-N-(4-hydroxycyclohexyl)-2-phenylpropanamide], in data set [2], the IC50 is 6.7 nM.

`CC(C(=O)NC1CCOCC1)(c1ccccc1)n1ncc2c1nc(N)n1nc(-c3ccco3)nc21` (stereo not shown) [Example 98, 2-(5-amino-2-(furan-2-yl)-7H-pyrazolo[4,3-e][1,2,4]triazolo[1,5-c]pyrimidin-7-yl)-2-phenyl-N-(tetrahydro-2H-pyran-4-yl)propanamide]: half-maximal inhibition in data set [2] (IC50) required 19.2 nM.

For the compound `CC(C(=O)NCC1(O)COC1)(c1ccccc1)n1ncc2c1nc(N)n1nc(-c3ccco3)nc21` (stereo not shown) [Example 31, 2-(5-amino-2-(furan-2-yl)-7H-pyrazolo[4,3-e][1,2,4]triazolo[1,5-c]pyrimidin-7-yl)-N-((3-hydroxyoxetan-3-yl)methyl)-2-phenylpropanamide], the IC50 in data set [2] was determined as 5.8 nM.

With `COc1cccc(CNC(=O)[C@@](C)(c2ccccc2)n2ncc3c2nc(N)n2nc(-c4ccco4)nc32)n1` [Example 112B, (R)-2-(5-amino-2-(furan-2-yl)-7H-pyrazolo[4,3-e][1,2,4]triazolo[1,5-c]pyrimidin-7-yl)-N-((6-methoxypyridin-2-yl)methyl)-2-phenylpropanamide], the IC50 in data set [2] is 1.2 nM.

The Ki is the equilibrium dissociation constant of an inhibitor or competing ligand from its target. Higher therefore signals weaker binding. Broadly, the IC50 is the concentration that gives 50% inhibition. A low value points to greater potency.
